{
  "source": "paper PMC8029583",
  "about": "(ACS chemical biology, 2020)",
  "key": {"ComR receptor [1]": {"molecular_target": "T1, ComR receptor (Streptococcus mutans serotype c, UniProt Q8DWI6)", "assay": "β-galactosidase reporter activation", "format": "cell-based"}, "ComR receptor [2]": {"molecular_target": "T1, ComR receptor", "assay": "β-galactosidase reporter inhibition", "format": "cell-based", "settings": "SMCOM2 in CDM; primary antagonism screening (Figure S-3)"}},
  "note": "Where a SMILES comes first, the peptide text is derived from it.",
  "data": [
    {"compound": "CC(C)C[C@H](NC(=O)[C@H](C)NC(=O)[C@H](Cc1c[nH]c2ccccc12)NC(=O)[C@H](Cc1c[nH]c2ccccc12)NC(=O)[C@H](C)NC(=O)[C@H](CC(C)C)NC(=O)[C@H](C)N)C(=O)O", "note": "[XIP-G1AD3AS6A (P30), ALAWWAL] (H-ALAWWAL-OH)", "values": [
      {"measurement": "comX activation (partial agonist)", "setting": "ComR receptor [1]; SMCOM2 in CDM, from dose response curve", "result": "~ 30%"}
    ]},
    {"compound": "CC(C)C[C@H](NC(=O)CN)C(=O)N[C@@H](CC(=O)O)C(=O)N[C@@H](Cc1c[nH]c2ccccc12)C(=O)N[C@@H](Cc1c[nH]c2ccccc12)C(=O)N[C@@H](CO)C(=O)N[C@@H](C)C(=O)O", "note": "[XIP-L7A (P8), GLDWWSA] (H-GLDWWSA-OH)", "values": [
      {"measurement": "inhibition of ComR activation", "setting": "ComR receptor [2]", "result": "~ 80%"}
    ]},
    {"compound": "CC(C)C[C@H](NC(=O)[C@H](CO)NC(=O)[C@H](Cc1c[nH]c2ccccc12)NC(=O)[C@H](C)NC(=O)[C@H](CC(=O)O)NC(=O)[C@H](CC(C)C)NC(=O)CN)C(=O)O", "note": "[XIP-W4A (P5), GLDAWSL] (H-GLDAWSL-OH)", "values": [
      {"measurement": "inhibition of ComR activation", "setting": "ComR receptor [2]", "result": "~ 90%"}
    ]},
    {"compound": "GLD [XIP-Des-W4W5S6L7 (P43)]", "values": [
      {"measurement": "activity / agonism against ComR (in words)", "setting": "ComR receptor [1]; SMCOM2 reporter in CDM", "result": "inactive"}
    ]},
    {"compound": "GLdWWSL [XIP-d3 (P10)]", "values": [
      {"measurement": "activation", "setting": "ComR receptor [1]; SMCOM2 in CDM, at 100 μM concentration", "result": "~ 45%"}
    ]}
  ]
}
